These results are taken from article PMC11301932 (Fluids and Barriers of the CNS, 2024).

SMILES strings stand for the structures. Read-outs that look alike come from different tables or passages of the source. Where only a bound is given, the exact number is not on record here.

Data set [1] is described as follows: Plasma concentration at the end of the 3 h i.p. infusion. It is filed as in vivo. The note with it: male, FVB, mouse, ip.
For data set [2] the following is noted: cited from earlier work.
The nature of another data set: Brain penetration. The note with it: WT mice, ABC transporter mediated efflux present, no inhibitor.
The next data set concerns the target T1, Abcg2 (Mus musculus, UniProt Q7TMS5).
T1 sequence (Q7TMS5 1-657): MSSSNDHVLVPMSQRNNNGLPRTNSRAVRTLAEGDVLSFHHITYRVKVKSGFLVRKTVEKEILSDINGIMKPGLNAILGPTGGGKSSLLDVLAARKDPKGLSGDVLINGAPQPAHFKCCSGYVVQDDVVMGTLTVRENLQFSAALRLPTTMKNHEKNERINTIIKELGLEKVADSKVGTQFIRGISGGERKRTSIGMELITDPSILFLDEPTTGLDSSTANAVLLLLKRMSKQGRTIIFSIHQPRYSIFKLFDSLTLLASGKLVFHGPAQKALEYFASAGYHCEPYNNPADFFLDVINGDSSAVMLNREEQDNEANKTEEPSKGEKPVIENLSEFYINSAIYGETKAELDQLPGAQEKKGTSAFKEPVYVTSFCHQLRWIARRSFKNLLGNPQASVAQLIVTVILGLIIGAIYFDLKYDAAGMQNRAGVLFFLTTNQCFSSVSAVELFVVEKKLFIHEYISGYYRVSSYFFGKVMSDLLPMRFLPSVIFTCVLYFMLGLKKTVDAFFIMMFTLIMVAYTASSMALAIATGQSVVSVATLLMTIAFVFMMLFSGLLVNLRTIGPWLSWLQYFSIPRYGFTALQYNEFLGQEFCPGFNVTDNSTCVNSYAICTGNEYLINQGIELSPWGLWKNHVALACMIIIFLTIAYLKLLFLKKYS
The data set can be described thus: Inhibition of efflux of substrate drugs from the brain of Abcb1a/b KO mice. It counts as in vivo.

For another data set, the system named is Abcb1a/b and Abcg2. Briefly: Inhibition of efflux of substrate drugs from the brain of WT mice. The note with it: mouse, in vivo.
For data set [3] the following is noted: standard procedure using buffer in the receiver compartment; ref [24], [33]; cited from earlier work.
The target of another data set is Abcb1a/b (Mus musculus, UniProt P21447). The data set can be described thus: Inhibition of efflux of substrate drugs from the brain of Abcg2 KO mice. It counts as in vivo.
Data set [4] is described as follows: Rapid equilibrium dialysis. It is filed as in vitro ADME. On the technique in general: In equilibrium dialysis only unbound substance equilibrates across the membrane.
The conditions of data set [5]: cited from earlier work. The source holds these as a separate data set.
Another data set concerns ABCB1. The note with it: humans, cited from earlier work.
The next data set deals with T2, human ABCG2/BCRP (Homo sapiens, UniProt Q9UNQ0).
T2 sequence (Q9UNQ0 1-655): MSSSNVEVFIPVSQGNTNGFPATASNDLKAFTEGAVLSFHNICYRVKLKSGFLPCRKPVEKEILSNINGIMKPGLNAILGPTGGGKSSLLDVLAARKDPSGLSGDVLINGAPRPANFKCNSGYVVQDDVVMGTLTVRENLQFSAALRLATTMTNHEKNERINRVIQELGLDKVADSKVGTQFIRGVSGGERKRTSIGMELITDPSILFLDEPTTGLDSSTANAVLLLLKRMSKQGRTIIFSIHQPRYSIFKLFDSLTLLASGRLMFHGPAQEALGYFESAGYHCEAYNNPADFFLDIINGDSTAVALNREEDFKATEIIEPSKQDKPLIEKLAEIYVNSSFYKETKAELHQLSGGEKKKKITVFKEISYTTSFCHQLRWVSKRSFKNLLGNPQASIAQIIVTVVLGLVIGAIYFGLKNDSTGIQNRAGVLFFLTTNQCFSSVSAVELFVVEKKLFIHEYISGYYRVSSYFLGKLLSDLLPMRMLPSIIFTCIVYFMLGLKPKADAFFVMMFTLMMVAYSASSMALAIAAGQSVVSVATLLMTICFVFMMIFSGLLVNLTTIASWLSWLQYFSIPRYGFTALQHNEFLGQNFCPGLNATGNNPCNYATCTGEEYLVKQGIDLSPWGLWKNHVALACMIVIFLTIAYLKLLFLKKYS
Briefly: Drug accumulation assay in MDCKII-BCRP cells with 8-drug mixture plus inhibitor. The note with it: in vitro, MDCKII-BCRP vs MDCK-MDR1.

Chain of Abcb1a/b (P21447 whole entry): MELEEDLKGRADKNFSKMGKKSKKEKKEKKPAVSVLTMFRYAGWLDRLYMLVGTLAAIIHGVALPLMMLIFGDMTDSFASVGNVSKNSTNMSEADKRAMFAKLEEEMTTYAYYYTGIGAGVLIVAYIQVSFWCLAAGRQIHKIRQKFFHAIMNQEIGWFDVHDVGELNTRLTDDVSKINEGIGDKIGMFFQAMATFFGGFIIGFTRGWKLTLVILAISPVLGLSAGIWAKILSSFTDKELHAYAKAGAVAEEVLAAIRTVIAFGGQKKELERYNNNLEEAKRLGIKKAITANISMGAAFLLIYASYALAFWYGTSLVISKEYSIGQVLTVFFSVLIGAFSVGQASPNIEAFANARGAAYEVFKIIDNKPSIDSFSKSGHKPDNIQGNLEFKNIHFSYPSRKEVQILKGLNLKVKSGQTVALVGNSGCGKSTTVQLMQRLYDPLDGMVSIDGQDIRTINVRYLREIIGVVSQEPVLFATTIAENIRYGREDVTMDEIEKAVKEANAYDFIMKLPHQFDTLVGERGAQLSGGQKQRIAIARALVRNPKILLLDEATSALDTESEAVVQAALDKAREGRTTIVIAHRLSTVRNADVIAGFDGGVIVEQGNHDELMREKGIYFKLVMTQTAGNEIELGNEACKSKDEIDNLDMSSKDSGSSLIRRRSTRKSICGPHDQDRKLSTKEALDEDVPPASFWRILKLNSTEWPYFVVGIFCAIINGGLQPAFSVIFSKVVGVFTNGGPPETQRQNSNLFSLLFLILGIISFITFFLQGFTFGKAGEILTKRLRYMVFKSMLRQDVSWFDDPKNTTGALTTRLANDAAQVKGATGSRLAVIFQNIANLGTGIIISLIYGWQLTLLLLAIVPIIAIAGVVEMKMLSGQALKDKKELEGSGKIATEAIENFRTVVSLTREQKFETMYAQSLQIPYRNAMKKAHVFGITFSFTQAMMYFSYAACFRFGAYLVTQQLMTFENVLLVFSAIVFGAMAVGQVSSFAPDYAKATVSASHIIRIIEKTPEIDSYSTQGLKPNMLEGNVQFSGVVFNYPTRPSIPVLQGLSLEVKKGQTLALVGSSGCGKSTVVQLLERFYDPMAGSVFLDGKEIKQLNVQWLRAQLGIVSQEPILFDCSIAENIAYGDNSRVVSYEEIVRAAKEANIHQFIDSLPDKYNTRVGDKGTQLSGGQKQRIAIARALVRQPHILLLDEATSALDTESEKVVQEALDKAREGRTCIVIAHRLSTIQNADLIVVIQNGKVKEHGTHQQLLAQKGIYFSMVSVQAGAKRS

As to `C#Cc1cccc(Nc2ncnc3cc(OCCOC)c(OCCOC)cc23)c1` [Erlotinib], in data set [1], the concentration at 3 h was 100 to 250 nM.

The molecule `COc1ccc(CCN(C)CCCC(C#N)(c2ccc(OC)c(OC)c2)C(C)C)cc1OC` (stereo not shown) [Verapamil] had a concentration at 3 h in data set [1] of 100 to 250 nM.

For `CNC(=O)c1cc(Oc2ccc(NC(=O)Nc3ccc(Cl)c(C(F)(F)F)c3)cc2)ccn1` [Sorafenib], the “Fold higher brain uptake in Abcg2;Abcb1a/b KO vs WT mice” value in data set [2] (LC-MS/MS on brain homogenates, ref [39]) was 9.3 fold.

In data set [1], `CCCS(=O)(=O)Nc1ccc(F)c(C(=O)c2c[nH]c3ncc(-c4ccc(Cl)cc4)cc23)c1F` [Vemurafenib] had a concentration at 3 h of 100 to 250 nM. For the same molecule, the B/P ratio in the data set “Brain penetration” came out at 0.02.

As for `COc1cc2c(cc1OC)CN(CCc1ccc(NC(=O)c3cccc4c(=O)c5cccc(OC)c5[nH]c34)cc1)CC2` [Elacridar, 9,10-dihydro-5-methoxy-9-oxo-N-[4-[2-(1,2,3,4-tetrahydro-6,7-dimethoxy-2-isoquinolinyl)ethyl]phenyl]-4-acridine-carboxamide], at Abcg2 (Abcb1a/b KO mice, palbociclib, dasatinib and erlotinib (Class II)), the “Elacridar plasma level for maximum inhibition of efflux” value is “above 1200 nM”. In addition, at Abcg2 (brain efflux in mice), the “Plasma level at which inhibitor inhibits its own ABCG2-mediated efflux” value is listed as “about 1200 nM”. The “Proposed target plasma level to enhance brain entry” value in the data set with Abcb1a/b and Abcg2 is 1200 nM and about 700 ng/ml. For the same molecule, in data set [3], the Free fraction result is “below 0.01”.

For `COc1cc2c(cc1OC)CN(CCc1ccc(NC(=O)c3cc(OC)c(OC)cc3NC(=O)c3cnc4ccccc4c3)cc1)CC2` [Tariquidar], at Abcb1a/b, the “Inhibitor plasma level for (near) complete inhibition of ABCB1 at the BBB” value was “at least 4000 nM” and the “Plasma level above which own B/P ratio starts to increase” value was “above 4000 nM”. Moreover, the “Tariquidar plasma level required for near complete ABCB1 inhibition” value on Abcb1a/b (for loperamide and afatinib) was not below 6 µM. Further, the “Tariquidar plasma level required for near complete ABCB1 inhibition” value on Abcb1a/b (for verapamil and erlotinib) is recorded as “at least 4000 nM”. Also, at Abcg2 (Abcb1a/b KO and WT mice (Abcg2 proficient)), the “Change of own B/P ratio with plasma concentration” value is “did not increase”. On Abcg2 (Abcb1a/b KO mice), the “Enhancement of brain accumulation of ABCG2-substrate drugs” value is listed as “none of the ABCG2-substrate drugs exhibit significant enhancement”. The concentration at 3 h in data set [1] (10.5 mg/kg/h) was more than 6000 nM. Besides, in [4] (RED competition setup), the “Plasma protein binding, mouse versus human plasma” value was “very high but similar in mouse and human plasma”. The “Fraction retrieved in the receiver chamber” value in data set [4] (RED, undiluted human or mouse plasma to human plasma, after 24 h of incubation) is reported as 2–3%. Also, the “Plasma level at the end of the infusion” value in [5] (humans, tariquidar 4–8 mg/kg i.v., 1.5–2.5 h, ref [19], [35]) is on record as 3000 to 4000 nM. The Oral bioavailability result in data set [5] (oral dosing in humans, ref [20]) is on record as “very low”. In addition, the Free fraction result in data set [3] is on record as “below 0.01”. In the data set with ABCB1 (tariquidar 4–8 mg/kg, infusion 1.5–2.5 h, ref [19], [35]), the “Fold increase of VT, brain of [11C]verapamil” value is 3.5 fold. Besides, the “Fold increased brain radioactivity of [11C]verapamil” value with ABCB1 (tariquidar 2 mg/kg, 30 min i.v. infusion, ref [41]) is reported as not above 2 fold. For the same molecule, the “Fold higher IC50 for ABCG2 than for ABCB1” value on human ABCG2/BCRP is “about 10 fold”.

With `CNC(=O)c1cc(Oc2ccc(N[11C](=O)Nc3ccc(Cl)c(C(F)(F)F)c3)cc2)ccn1` [[^11C]sorafenib], the “Fold higher brain uptake in Abcg2;Abcb1a/b KO vs WT mice” value in [2] (PET, ref [38]) is listed as 3 fold.
